{
  "source": "patent US11059845B2",
  "about": "“Immune stimulating macrolides” (ISR IMMUNE SYSTEM REGULATION HOLDING AB (PUBL), priority 2017, dated 2021)",
  "key": {"[1]": {"system": "C57bl/6 mice", "test": "CD25 expression in blood of mice after i.v. injection", "assay_type": "in vivo, mouse", "conditions": "highest dose of 5 mg/kg, 24 h", "procedure": "FIG. 14: % CD25 high cells in blood of C57bl/6 mice injected 24 h previously with indicated dose of compound 1. CD25 expression was measured by flow cytometry.\nStudy 13: Compound 1 was administered i.v. to C57bl/6 mice at 0.165 mg/kg to 5 mg/kg. CD25+ cell abundance was increased in animals receiving the highest dose of 5 mg/kg (FIG. 14), as was body weight in the same group (not shown)."}, "[2]": {"system": "peripheral blood mononuclear cells (PBMC)", "test": "Marker expression on PBMC by flow cytometry", "assay_type": "cell-based, human", "conditions": "24 h", "procedure": "Human peripheral blood mononuclear cells (PBMCs) were purified from healthy donors with Ficoll-Paque density centrifugation. Cells were cultured in complete RPMI-1640 media (Invitrogen) supplemented with 25 mM HEPES, L-glutamine, Sodium pyruvate (Sigma), 10% fetal bovine serum, 100 μg/mL penicillin and 100 μg/mL streptomycin (Hyclone) for 24-72 hours in 37° C., 5% CO2 and stimulated with and increasing concentrations of compound 1 and 2. Cells were then washed in PBS and stained with monoclonal antibodies specific for cell surface markers (BD Pharmingen) and analysed with flow cytomtetry using a BD FACS Canto II flow cytometer. All samples were tested in duplicates.\nHuman peripheral blood mononuclear cells (PBMCs) were purified from healthy donors with Ficoll-Paque density centrifugation. Cells were cultured in complete RPMI-1640 medium (Invitrogen) supplemented with 25 mM HEPES, L-glutamine, Sodium pyruvate (Sigma), 10% fetal bovine serum, 100 μg/mL penicillin and 100 μg/mL streptomycin (Hyclone). Cells were stimulated for 24 h (study 1-4) or 48 h to 1 week (study 5) in 37° C., 5% CO2 with increasing concentrations of compound 1 and 2 in tissue culture plates. The cells were removed from the plate, washed in PBS and analysed for expression of cell specific surface markers and MHC class I with flow cytometry using monoclonal antibodies from BD Pharmingen and a FACS Canto II flow cytometer."}, "[3]": {"system": "CMV specific CD8+ T cells", "test": "CMV cultures: phenotype of CMV specific CD8+ T cells", "assay_type": "cell-based, human", "conditions": "PBMCs from CMV infected donors, CMV antigen, 6 days", "procedure": "Human peripheral blood mononuclear cells (PBMCs) were purified from healthy CMV positive donors with Ficoll-Paque density centrifugation. The PBMC were labeled with 5 μM celltrace violet (Invitrogen) in PBS for 15 minutes and then washed with complete cell culture medium. The labeled PBMC was cultured in the presence of a peptide library spanning the CMV pp65 protein (1 μg peptide/ml, JPT) in AIM-V media (Invitrogen) supplemented with L-glutamine, Sodium pyruvate (Sigma), 10% fetal bovine serum, 100 μg/mL penicillin and 100 μg/mL streptomycin (Hyclone) for 6-8 days in 37° C., 5% CO2. Cell proliferation was assessed with flow cytomtery using a BD FACS Canto II flow cytometer.\nStudy 7: CMV virus specific T cell proliferation was also affected by compound 1. […] CD127 is crucial for T cell homeostasis, differentiation and function, and reduced expression correlates with disease severity in HIV and other chronic viral diseases (Crawley et al. 2012)."}, "[4]": {"system": "E. coli, S. salivarius, L. casei, B. longum or M. luteus", "test": "Direct antibacterial activity, summary over all strains tested", "assay_type": "cell-based", "conditions": "against the bacterial strains tested (Table 1)", "procedure": "The bioactivity of macrolide compounds against 4 strains of common gut bacteria (Escherichia coli, Streptococcus salivarius subsp. salivarius, Lactobacillus casei and Bifidobacterium longum subsp. infantis) and common mammalian skin isolate Micrococcus luteus, was assessed using the Minimum Inhibitory Concentration (MIC) assay. Bacterial strains were purchased from DSMZ (Brunswick, Germany) except M. luteus which was obtained from NCIMB, and stored in 20% glycerol at −80° C. Stock solutions (100% DMSO) of positive controls (azithromycin and erythromycin), and of test compounds 1 and 2 were diluted in broth to working stock concentrations of 256 μg/ml (final assay testing concentration range 128 μg/ml to 0.00391 μg/ml). Stock solutions of all other compounds were diluted in broth to working stock concentrations of 128 μg/ml (final assay testing concentration range 64 μg/ml to 0.00195 μg/ml). Bacterial strains were cultivated in appropriate broth in an anaerobic chamber at 37° C., except for M. luteus which was incubated aerobically at 37° C. 18 h cultures were diluted in broth to an OD595 of 0.1 and then further diluted 1:10. In 96-well plates, in duplicate, 200 μl working stock of test compound was transferred to well 1 and serially diluted (1:2) in broth. 100 μl bacterial suspension was aliquoted into each well and mixed thoroughly. Appropriate sterility controls were included and plates were incubated in an anaerobic chamber, or aerobically (M. luteus) at 37° C. for 18 h. The MIC was determined to be the concentration of test compound in the first well with no visible growth."}, "[5]": {"biological_target": "T1, human TLR2 (Homo sapiens, UniProt O60603)", "T1 construct": "host or cells: recombinant HEK-293-TLR cell lines (hTLR2, NFkB-SEAP reporter)", "T1 sequence (O60603 21-784)": "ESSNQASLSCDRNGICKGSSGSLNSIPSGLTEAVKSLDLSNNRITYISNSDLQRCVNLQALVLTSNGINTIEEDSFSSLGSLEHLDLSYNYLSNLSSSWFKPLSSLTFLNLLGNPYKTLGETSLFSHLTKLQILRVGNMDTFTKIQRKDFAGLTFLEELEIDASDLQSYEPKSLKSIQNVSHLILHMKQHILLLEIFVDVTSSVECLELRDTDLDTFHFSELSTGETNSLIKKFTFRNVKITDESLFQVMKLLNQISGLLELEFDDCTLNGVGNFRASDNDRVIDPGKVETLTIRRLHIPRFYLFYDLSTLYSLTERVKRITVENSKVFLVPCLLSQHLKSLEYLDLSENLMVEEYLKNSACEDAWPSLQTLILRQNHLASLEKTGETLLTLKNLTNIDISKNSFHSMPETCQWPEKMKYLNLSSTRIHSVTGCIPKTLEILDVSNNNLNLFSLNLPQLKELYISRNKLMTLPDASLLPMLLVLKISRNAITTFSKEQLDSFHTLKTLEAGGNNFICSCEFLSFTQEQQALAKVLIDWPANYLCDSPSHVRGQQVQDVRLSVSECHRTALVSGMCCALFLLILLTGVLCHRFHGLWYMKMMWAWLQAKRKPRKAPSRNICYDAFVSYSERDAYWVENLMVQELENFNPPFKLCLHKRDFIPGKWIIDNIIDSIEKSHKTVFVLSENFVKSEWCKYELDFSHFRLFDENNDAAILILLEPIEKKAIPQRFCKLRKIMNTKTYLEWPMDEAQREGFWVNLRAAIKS", "test": "TLR2 reporter assay (HEK-293-TLR, SEAP)", "assay_type": "cell-based", "procedure": "Samples and controls were tested in duplicate on recombinant HEK-293-TLR cell lines using a cell reporter assay at Invivogen using their standard assay conditions. These cell lines functionally over-express human TLR2 protein as well as a reporter gene which is a secreted alkaline phosphatase (SEAP). The production of this reporter gene is driven by an NFkB inducible promoter. The TLR reporter cell lines activation results are given as optical density values (OD). 20 μl of each test article were used to stimulate the hTLR2 reporter cell lines in a 200 μl of final reaction volume. Samples were tested in duplicate, with at least two concentrations tested—20 uM and 10 uM.\nCompounds were tested using a TLR2 reporter assay (see general methods) that measured for stimulation of the TLR2 receptor. Stimulatory effect was measured as an increase in optical density (OD) due to release of secreted alkaline phosphatase (SEAP) and is shown in table 4: […]"}},
  "data": [
    {"smiles": "CC[C@H]1OC(=O)[C@H](C)[C@@H](O[C@H]2C[C@@H](N(C)C)[C@H](O)[C@@H](C)O2)[C@H](C)[C@@H](O)[C@](C)(O)C[C@@H](C)CN(C)[C@H](C)[C@@H](O)[C@]1(C)O", "note": "[Compound 1]", "values": [
      {"measurement": "CD25+ cell abundance", "setting": "[1]", "result": "increased"},
      {"measurement": "activation marker CD69 on B cells", "setting": "[2]; 1 μM", "result": "upregulated"},
      {"measurement": "activation marker CD69 on CD4+ T cells", "setting": "[2]; 1 μM", "result": "upregulated"},
      {"measurement": "MHC class I (HLA-ABC) on B-cells", "setting": "[2]", "result": "upregulation"},
      {"measurement": "MHC class I (HLA-ABC) on T-cells", "setting": "[2]", "result": "upregulation"},
      {"measurement": "MHC class II (HLA-DR) on monocytes", "setting": "[2]", "result": "upregulation"},
      {"measurement": "co-stimulatory molecule CD80 on monocytes", "setting": "[2]", "result": "upregulation"},
      {"measurement": "expression of IL-7 receptor α (CD127) on activated CMV specific CD8+ T cells", "setting": "[3]", "result": "increased expression"},
      {"measurement": "antibacterial activity", "setting": "[4]", "result": "no antibacterial activity"},
      {"measurement": "OD after addition of 5 μM test article", "setting": "[5]; 5 μM, SEAP reporter optical density", "result": 0.111},
      {"measurement": "OD after addition of 10 μM test article", "setting": "[5]; 10 μM, SEAP reporter optical density", "result": 0.202},
      {"measurement": "OD after addition of 20 μM test article", "setting": "[5]; 20 μM, SEAP reporter optical density", "result": 0.458},
      {"measurement": "concentrations at which TLR2 was stimulated (down to)", "setting": "[5]; lowest stimulating concentration tested", "result": "≥ 5", "unit": "µM"}
    ]}
  ]
}
